Assay results: patent US12702307B2, “Non-invasive stress imaging methods of diagnosing peripheral arterial disease via dynamic pet” (Jubilant DraxImage inc., priority 2021, dated 2026)

Tests used:
[1] = system: occluded tissue / low limb; assay: Dynamic Rb-82 PET, tracer flux K1 in lower extremity, human study; format: in vivo; conditions: for average K1 value: diabetic subject, 3D region of interest on the low limb, parametric imaging
Experimental: CT scan was performed on the subject for standard attenuation correction, multi-energy low dose contrast CT imaging was performed to define lower extremity vasculature and attenuation correction was performed using virtual non-contrast images; 518±37 MBq Rb-82 is administered to the subject using automated generation and infusion system agent; single bed PET acquisition of the heart for about 2-7 minutes is performed; single bed centered PET acquisition at abdominal aorta of the subject for about 1-3 minutes is performed; continuous bed motion PET scan of the subject between abdominal aorta and legs is performed; input function was calculated from abdominal artery; Tracer flux (K1) into the tissue or region of interest is calculated as volume per unit time per unit volume of tissue. […] FIG. 5 represents the image acquisition protocol during human study. FIG. 7 represents the muscle volumes in human studies.

calf muscles = assay: Rb PET/CT calf muscle perfusion at rest and reactive hyperemia in controls and PAD patients; format: in vivo, human
Experimental: Methods: Rb PET/CT imaging (Vision600, Siemens) was performed in healthy controls (n=6) and PAD patients (n=6). Rb (20-30 mCi) was delivered using a constant activity infusion over […], with PET images acquired by shuttling scanner from either heart (Protocol 1) or abdomen (Protocol 2) to feet using 8-11 passes over 7 minutes. Abdominal protocol was repeated 30 seconds after RH induced by 5 minutes bilateral thigh cuff occlusion. Mean Rb standardized uptake values (SUV), excluding the input function, were determined for calf muscles segmented in both legs using hybrid CT images including: gastrocnemius (GC), soleus (SOL), tibialis anterior (TA), extensor digitorum longus (EDL), and peroneus (PER) (FIG. 10A).

[2] = system: calf muscles, hindlimb ischemia (HLI); assay: Rb-82 PET/CT of calf muscles in rabbit hindlimb ischemia at rest and cuff-induced hyperemia; format: in vivo, rabbits; conditions: for SMP SUV: cuff-induced hyperemia (CIH); for Mean Rb-82 SUV: rest, 1.5 mCi
Experimental: Methods: Hindlimb ischemia (HLI) was created in rabbits (n=8) by right femoral ligations and Rb-82 PET/CT imaging performed on digital PET scanner (Vision600, Siemens) at either 2 or 4 weeks post-ligation. Rabbits were injected with Rb-82 (1.5 mCi) with constant activity infusion over 30 seconds at rest and 30 seconds following hyperemia induced by 3 minutes cuff occlusion of thighs bilaterally. PET images were acquired with shuttling scanner from heart to feet using 8 passes over 7 minutes. Summed images were created excluding the first 90 seconds post injection. Calf muscles were segmented based on CT images. Mean Rb-82 standardized uptake values (SUVs) were calculated for calf muscles—gastrocnemius (GC), plantaris (PLA), soleus (SOL), tibialis anterior (TA), extensor digitorum longus (EDL), peroneus (PER)—for both ischemic (I) and non-ischemic (NI) limbs. CT angiography was performed, and tissues analyzed for fiber type and capillary density.

[3] = system: occluded tissue (lower extremity); assay: Dynamic Rb-82 PET, tracer flux K1 in lower extremity, animal study; format: in vivo, porcine pigs; conditions: occluded tissue in comparison to non-occluded tissue; 518±37 MBq Rb-82
Experimental: CT scan was performed on the subject for standard attenuation correction, and multi-energy low dose contrast CT imaging was performed to define the lower extremity vasculature and attenuation correction was performed using virtual non-contrast images; 518±37 MBq Rb-82 was administered to the subject using automated generation and infusion system; single bed PET acquisition of the heart for about 1-10 minutes, was performed; single bed PET acquisition of the leg for about 1-10 minutes was performed; single bed centered PET acquisition at abdominal aorta of the subject for about 1-3 minutes was performed; continuous bed motion PET scan of the subject between abdominal aorta and legs was performed; tracer flux (K1) into the tissue or region of interest is calculated as volume per unit time per unit volume of tissue. […] It was validated by injecting microspheres over 30 seconds during the PET imaging at either rest or stress conditions for each animal and blood flow was measured in both gastrocnemius and soleus muscles. FIG. 4 represents the sample animal K1 parametric image with AA as the input function. FIG. 6 represents the muscle volumes in animal studies.

average K1 value [1]	Mean Rb SUV (calf muscles; reactive hyperemia (RH), PAD patients, gastrocnemius (GC))	Mean Rb SUV (calf muscles; reactive hyperemia (RH), PAD patients, soleus (SOL))	Mean Rb SUV (calf muscles; reactive hyperemia (RH), controls, gastrocnemius (GC))	Mean Rb SUV (calf muscles; reactive hyperemia (RH), controls, soleus (SOL))	Mean Rb SUV (calf muscles; rest, PAD subjects, gastrocnemius (GC))	Mean Rb SUV (calf muscles; rest, PAD subjects, soleus (SOL))	Mean Rb SUV (calf muscles; rest, controls, gastrocnemius (GC))	Mean Rb SUV (calf muscles; rest, controls, soleus (SOL))	SMP SUV ([2]; ischemic (I) limb)	SMP SUV ([2]; non-ischemic (NI) limb)	Mean Rb-82 SUV ([2]; ischemic (I) limb across calf muscles)	Mean Rb-82 SUV ([2]; non-ischemic (NI) limb across calf muscles)	Average K1 (tracer flux) ([1]; occluded tissue in comparison to non-occluded tissue, 518±37 MBq Rb-82)	Average K1 (tracer flux) [3]	Molecule
0.039															[15OH2] [^15O-water]
0.032	0.96±0.58	1.08±0.76	0.38±0.18	0.34±0.14	0.50±0.11	0.66±0.20	0.44±0.11	0.52±0.12	1.02±0.32	1.14±0.34	0.55±0.18	0.51±0.16	less than 0.05 ml/min/cm^3	less than 0.05 ml/min/cm^3	Rb-82 chloride
